How the values were obtained:
RebA solubility in water = type: physicochemical
Method: The solubility of RebA determines the concentration that can be used both for the whole-cell approach and for the cell-free approach. Several different solutions of RebA in water were made and left at room temperature for several days. After 24 hours of storage, RebA precipitated at concentrations of 50 mM or higher. Twenty-five mM RebA started to precipitate after 4-5 days, while 10 mM or lower concentrations remained in solution, even when stored at 4° C.

[1] = test system: Stevia rebaudiana kaurene oxidase; assay: Ent-kaurenoic acid accumulation in EFSC2386 with different CPRs (activation of KO1); type: cell-based, S. cerevisiae; settings: LC-MS peak area; with KO-1 in EFSC2386
Description: The CEN.PK S. Cerevisiae EFSC2386 strain and the CPRs referred to in this Example are described in the Example 11 (“Identification of S. rebaudiana KAH”). EFSC2386 contained the following integrated genes: Aspergillus nidulans Geranyl geranyl pyrophosphate synthase (GGPPS); Zea mays ent-copalyl diphosphate synthase (CDPS); Stevia rebaudiana ent-kaurene synthase (KS); and Stevia rebaudiana ent-kaurene oxidase (KO). This strain produces ent-kaurenoic acid that was detected by LC-MS analysis.
A collection of cytochrome P450 reductases (CPRs) were expressed and tested in strain EFSC2386; “CPR1” (S. rebaudiana NADPH dependent cytochrome P450 reductase, Kumar et al., Accession no. DQ269454); “ATR1” (A. thaliana CPR, Accession No. CAA23011); “ATR2” (A. thaliana CPR, Accession No. CAA46815); “CPR7” (S. rebaudiana CPR, CPR7 is similar to “CPR1”); “CPR8” (S. rebaudiana CPR, similar to Artemisia annua CPR; and “CPR4” (S. cerevisiae NCP1, Accession No. YHR042W).
Overexpression of the S. cerevisiae endogenous native CPR (referred to as CPR4 in Table 14), and especially overexpression of one of the A. thaliana CPRs namely ATR2, gives good activation of the Stevia rebaudiana kaurene oxidase (the latter called KO1 in Table 14) and results in increased accumulation of ent-kaurenoic acid. See Table 14, which presents the area under curve (AUC) of the ent-kaurenoic acid peak in the LC-MS chromatograms. KO1 is an ent-kaurenoic acid producing yeast control strain without additional overexpression of CPRs.

[2] = test system: S. cerevisiae strain BY4741; assay: Steviol-feeding experiment of S. cerevisiae strain BY4741; type: cell-based
Method: Further experiments were conducted to determine if the codon-optimized UGT85C2 could reduce 19-SMG accumulation and increase rubusoside and higher glycosylated steviol glycosides production. The production of 19-SMG and rubusoside were analysed in a steviol-feeding experiment of S. cerevisiae strain BY4741 expressing the wild type UGT74G1 as well as the codon-optimized UGT85C2 from high copy (2p) vectors under strong constitutive promoter (GPD1) (vectors P426-GPD and P423-GPD, respectively). Whole culture samples (without cell removal) were taken and boiled in an equal volume of DMSO for total glycosides levels. Intracellular concentrations reported were obtained by pelleting cells, and resuspending in 50% DMSO to the volume of the original culture sample taken, followed by boiling. The “total” glycosides level and the normalized intracellular level then were measured using LC-MS. Using wild type UGT74G1 and wild type UGT85C2, approximately 13.5 μM rubusoside was produced in total with a maximum normalized intracellular concentration of about 7 μM. In contrast, when wild type UGT74G1 and codon-optimized UGT85C2 were used, a maximum of 26 μM rubusoside was produced, or approximately double of what was produced using the wild type UGT85C2. Additionally, the maximum normalized intracellular concentration of rubusoside was 13 μM, again an approximate doubling of what was produced using wild type UGT85C2. […] Consequently, about 10 μM less total 19-SMG was measured for the codon-optimized UGT85C2.

[3] = co-expressed with wild type UGT74G1, steviol feeding

Stevia rebaudiana kaurene oxidase, sequence (as listed by the source): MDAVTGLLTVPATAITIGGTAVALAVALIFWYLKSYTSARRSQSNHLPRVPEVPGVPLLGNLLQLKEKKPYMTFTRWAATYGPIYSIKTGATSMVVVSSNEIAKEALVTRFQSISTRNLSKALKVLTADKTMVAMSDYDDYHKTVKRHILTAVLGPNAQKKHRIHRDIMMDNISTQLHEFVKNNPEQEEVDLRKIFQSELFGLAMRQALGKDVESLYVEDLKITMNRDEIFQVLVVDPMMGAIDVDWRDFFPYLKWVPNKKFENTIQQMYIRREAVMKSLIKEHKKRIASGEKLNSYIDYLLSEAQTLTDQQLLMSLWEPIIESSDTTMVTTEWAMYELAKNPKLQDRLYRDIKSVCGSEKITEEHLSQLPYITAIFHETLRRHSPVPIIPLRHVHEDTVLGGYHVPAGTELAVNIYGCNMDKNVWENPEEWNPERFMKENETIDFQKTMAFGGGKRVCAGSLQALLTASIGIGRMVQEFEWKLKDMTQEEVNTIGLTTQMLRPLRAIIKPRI

Molecule: C=C1C[C@@]23CC[C@H]4[C@@](C)(CCC[C@@]4(C)C(=O)O[C@@H]4O[C@H](CO)[C@@H](O)[C@H](O)[C@H]4O)[C@@H]2CC[C@]1(O[C@@H]1O[C@H](CO)[C@@H](O)[C@H](O[C@@H]2O[C@H](CO)[C@@H](O)[C@H](O)[C@H]2O)[C@H]1O[C@@H]1O[C@H](CO)[C@@H](O)[C@H](O)[C@H]1O)C3 [RebA, Rebaudioside A]
- time until precipitation started (RebA solubility in water; Twenty-five mM RebA in water): 4 to 5 days
- concentration at which RebA precipitated (RebA solubility in water; water, room temperature, after 24 hours of storage): ≥ 50 mM
- concentration that remained in solution (RebA solubility in water; water, several days, even when stored at 4° C.): ≥ 10 mM

Molecule: CPR-1: S. rebaudiana NADPH dependent cytochrome P450 reductase, Accession no. DQ269454
- Ent-Kaurenoic Acid (AUC) [1]: 14113 AUC

Molecule: ATR-2: A. thaliana CPR, Accession No. CAA46815
- Ent-Kaurenoic Acid (AUC) [1]: 29412 AUC

Molecule: CPR-8: S. rebaudiana CPR, similar to Artemisia annua CPR
- Ent-Kaurenoic Acid (AUC) [1]: 12590 AUC

B1: codon-optimized UGT85C2: UGT85C2 expressed from the GeneArt codon-optimized sequence; amino acid sequence unchanged (protein, UniProt Q6VAB0 1-481, looked up)
UDP-glycosyltransferase 85C2: MDAMATTEKKPHVIFIPFPAQSHIKAMLKLAQLLHHKGLQITFVNTDFIHNQFLESSGPHCLDGAPGFRFETIPDGVSHSPEASIPIRESLLRSIETNFLDRFIDLVTKLPDPPTCIISDGFLSVFTIDAAKKLGIPVMMYWTLAACGFMGFYHIHSLIEKGFAPLKDASYLTNGYLDTVIDWVPGMEGIRLKDFPLDWSTDLNDKVLMFTTEAPQRSHKVSHHIFHTFDELEPSIIKTLSLRYNHIYTIGPLQLLLDQIPEEKKQTGITSLHGYSLVKEEPECFQWLQSKEPNSVVYVNFGSTTVMSLEDMTEFGWGLANSNHYFLWIIRSNLVIGENAVLPPELEEHIKKRGFIASWCSQEKVLKHPSVGGFLTHCGWGSTIESLSAGVPMICWPYSWDQLTNCRYICKEWEVGLEMGTKVKRDEVKRLVQELMGEGGHKMRNKAKDWKEKARIAIAPNGSSSLNIDKMVKEITVLARN
- less total 19-SMG than with wild type UGT85C2 [2]: about 10 μM
- maximum intracellular concentration of 19-SMG [2, 3]: 19 µM
- maximum normalized intracellular concentration of rubusoside [2, 3]: 13 µM
- rubusoside produced in total [2, 3]: 26 µM

B2: CPR-4: S. cerevisiae NCP1, Accession No. YHR042W (protein, UniProt P16603 2-691, looked up)
NADPH--cytochrome P450 …: PFGIDNTDFTVLAGLVLAVLLYVKRNSIKELLMSDDGDITAVSSGNRDIAQVVTENNKNYLVLYASQTGTAEDYAKKFSKELVAKFNLNVMCADVENYDFESLNDVPVIVSIFISTYGEGDFPDGAVNFEDFICNAEAGALSNLRYNMFGLGNSTYEFFNGAAKKAEKHLSAAGAIRLGKLGEADDGAGTTDEDYMAWKDSILEVLKDELHLDEQEAKFTSQFQYTVLNEITDSMSLGEPSAHYLPSHQLNRNADGIQLGPFDLSQPYIAPIVKSRELFSSNDRNCIHSEFDLSGSNIKYSTGDHLAVWPSNPLEKVEQFLSIFNLDPETIFDLKPLDPTVKVPFPTPTTIGAAIKHYLEITGPVSRQLFSSLIQFAPNADVKEKLTLLSKDKDQFAVEITSKYFNIADALKYLSDGAKWDTVPMQFLVESVPQMTPRYYSISSSSLSEKQTVHVTSIVENFPNPELPDAPPVVGVTTNLLRNIQLAQNNVNIAETNLPVHYDLNGPRKLFANYKLPVHVRRSNFRLPSNPSTPVIMIGPGTGVAPFRGFIRERVAFLESQKKGGNNVSLGKHILFYGSRNTDDFLYQDEWPEYAKKLDGSFEMVVAHSRLPNTKKVYVQDKLKDYEDQVFEMINNGAFIYVCGDAKGMAKGVSTALVGILSRGKSITTDEATELIKMLKTSGRYQEDVW
- Ent-Kaurenoic Acid (AUC) [1]: 25103 AUC

Source: patent US12416034B2, “Recombinant production of steviol glycosides” (EVOLVA SA, priority 2011, dated 2025)
